We go through one compound from paper PMC8262356, “SLC26A6-selective inhibitor identified in a small-molecule screen blocks fluid absorption in small intestine” (JCI Insight, 2021).

The assay concerns the target T1, slc26a2 (Mus musculus, UniProt Q62273).
T1 construct: Full -length slc26a2 cDNAs; expressed in transfected cells; host or cells: 293 T/17 cells, transient transfection with pIRES-HIF vector (IRES-YFP, not fused)
T1 sequence (Q62273 1-739): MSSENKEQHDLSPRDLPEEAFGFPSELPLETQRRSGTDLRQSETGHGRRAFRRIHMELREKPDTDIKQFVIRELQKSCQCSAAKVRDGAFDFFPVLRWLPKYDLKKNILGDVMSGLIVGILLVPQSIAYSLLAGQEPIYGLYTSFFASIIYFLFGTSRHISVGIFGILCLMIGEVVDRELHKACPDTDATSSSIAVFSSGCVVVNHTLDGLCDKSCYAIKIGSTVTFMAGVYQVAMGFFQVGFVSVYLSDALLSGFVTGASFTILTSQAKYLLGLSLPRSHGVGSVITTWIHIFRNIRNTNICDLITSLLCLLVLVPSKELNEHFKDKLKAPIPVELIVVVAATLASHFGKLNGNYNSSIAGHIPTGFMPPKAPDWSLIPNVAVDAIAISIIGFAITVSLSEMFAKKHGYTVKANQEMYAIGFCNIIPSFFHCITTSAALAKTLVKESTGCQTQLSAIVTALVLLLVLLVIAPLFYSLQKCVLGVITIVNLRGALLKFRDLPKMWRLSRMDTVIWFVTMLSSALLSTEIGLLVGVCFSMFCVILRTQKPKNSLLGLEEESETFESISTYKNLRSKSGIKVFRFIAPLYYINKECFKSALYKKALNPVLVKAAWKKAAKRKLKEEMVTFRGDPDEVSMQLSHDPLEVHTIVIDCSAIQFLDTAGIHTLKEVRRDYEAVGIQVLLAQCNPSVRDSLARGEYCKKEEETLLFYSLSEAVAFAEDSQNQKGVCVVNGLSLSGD
Put plainly: Selectivity: Cl-/I- exchange in 293T/17 cells transfected with slc26a2 and YFP. Type of assay: cell-based. Particulars: 25 μM, 10 min preincubation. Here is the method: YFP-based cellular assays of slc26a3, slc26a4, SLC26A9, and TMEM16A function were performed as described previously ([7]). Slc26a1 and slc26a2 assays were done in transfected HEK 293 cells (see Supplemental Methods for details). Niflumic acid was used as a positive control for SLC26A isoforms ([7]). For TMEM16A, the selective small-molecule inhibitor TMinh-23 was used as a positive control ([28]). The activities of ENaC, CFTR, and CaCC were determined using well-differentiated HBE cells as described previously ([13]). Cl^–/HCO3^– exchange was measured as described previously ([7], [10], [11]). Briefly, cell cytoplasm was labeled with the pH-sensitive fluorescent dye BCECF-AM (Invitrogen), and Cl^–/HCO3^– exchange was measured in response to addition of a gluconate-containing solution to drive exchange of cytoplasmic Cl^– for extracellular HCO3^–, producing cytoplasmic alkalinization.
Slc26a1 and slc26a2 cDNA constructs
The complementar y DNA sequences of slc26a1 and slc26a2 were generated using gB LOCK gene fragments (Int egrat ed DNA technology, Coralville, IA) in the plasmid vector pIRESpuro3 (Takara, San J ose, CA). […]
PBS. […] Background-corrected, area-integrat ed single cell fluorescence was calcul ated for determination of slc26a1 / slc26a2 activit y from the rate of fluorescence quenching. […]

Take `Cc1c(Br)c(C(F)(F)F)nn1CC(=O)N1CCc2nc3cc(-c4ccccc4)[nH]n3c(=O)c2C1` [PAT1inh-B01]: the “effect on slc26a2 activity” value is “did not affect”.
